Source: article PMC12638379, “An innovative approach to development of new pyrazolylquinolin-2-one hybrids as dual EGFR and BRAF^V600E inhibitors” (Molecular Diversity, 2025)
Like-named read-outs stand apart in the source and are kept apart here.

System: NCI 60 cancer cell lines
Assay: NCI anticancer screening over a panel of 60 cancer cells, single concentration 10 µM
Format: cell-based, human
Settings: Homo sapiens, read-out: Growth inhibition (GI %)
In short: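 Run under the NCI Compound Evaluation Branch protocol, each compound was tested once at 10 µM. The panel comprised 60 cancer cell lines of diverse tissue origin, including leukemia, lung, colon, CNS, renal, ovarian, breast and prostate.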

CC(=O)c1cnn(-c2cc(=O)[nH]c3ccc(Br)cc23)c1C [Compound 2e, 4-(4-Acetyl-5-methyl-1H-pyrazol-1-yl)-6-bromoquinolin-2(1H)-one]
inhibition at 10 µM (786-0, Renal cancer 786-0, 10 μM): < 5% | inhibition at 10 µM (A498, Renal cancer A498, 10 μM): < 5% | inhibition at 10 µM (A549, Non-small cell lung cancer A549/ATCC, 10 μM): < 5% | inhibition at 10 µM (ACHN, Renal cancer ACHN, 10 μM): < 5% | inhibition at 10 µM (BT-549, Breast cancer BT-549, 10 μM): < 5% | inhibition at 10 µM (CAKI-1, Renal cancer CAKI-1, 10 μM): 16.5% | inhibition at 10 µM (CCRF-CEM, Leukemia CCRF-CEM, 10 μM): 8.16% | inhibition at 10 µM (COLO 205, Colon cancer COLO 205, 10 μM): < 5% | inhibition at 10 µM (DU-145, Prostate cancer DU-145, 10 μM): < 5% | inhibition at 10 µM (EKVX, Non-small cell lung cancer EKVX, 10 μM): 6.46% | inhibition at 10 µM (HCC 2998, Colon cancer HCC-2998, 10 μM): < 5% | inhibition at 10 µM (HCT-15, Colon cancer HCT-15, 10 μM): < 5% | inhibition at 10 µM (HCT-116, Colon cancer HCT-116, 10 μM): < 5% | inhibition at 10 µM (HL-60, Leukemia HL-60(TB), 10 μM): 12.8% | inhibition at 10 µM (HOP-62, Non-small cell lung cancer HOP-62, 10 μM): 13.6% | inhibition at 10 µM (HOP-92, Non-small cell lung cancer HOP-92, 10 μM): 20.4% | inhibition at 10 µM (HT-29, Colon cancer HT29, 10 μM): 7.95% | inhibition at 10 µM (Hs-578T, Breast cancer HS 578T, 10 μM): 6.91% | inhibition at 10 µM (IGROV-1, Ovarian cancer IGROV1, 10 μM): < 5% | inhibition at 10 µM (K562, Leukemia K-562, 10 μM): < 5% | inhibition at 10 µM (KM12, Colon cancer KM12, 10 μM): < 5% | inhibition at 10 µM (LOX IMVI, Melanoma LOX IMVI, 10 μM): 9.22% | inhibition at 10 µM (Leukemia SR, 10 μM): < 5% | inhibition at 10 µM (MCF7, Breast cancer MCF7, 10 μM): < 5% | inhibition at 10 µM (MDA-MB-231, Breast Cancer MDA-MB 231/ATCC, 10 μM): < 5% | inhibition at 10 µM (MDA-MB-435, Melanoma MDA-MB-435, 10 μM): < 5% | inhibition at 10 µM (MDA-MB-468, Breast cancer MDA-MB-468, 10 μM): < 5% | inhibition at 10 µM (MOLT-4, Leukemia MOLT-4, 10 μM): < 5% | inhibition at 10 µM (Malme-3M, Melanoma MALME-3M, 10 μM): 14% | inhibition at 10 µM (Melanoma M14, 10 μM): < 5% | inhibition at 10 µM (NCI-H23, Non-small cell lung cancer NCI-H23, 10 μM): < 5% | inhibition at 10 µM (NCI-H226, Non-small cell lung cancer NCI-H226, 10 μM): 10.7% | inhibition at 10 µM (NCI-H322M, Non-small cell lung cancer NCI-H322M, 10 μM): < 5% | inhibition at 10 µM (NCI-H460, Non-small cell lung cancer NCI-H460, 10 μM): < 5% | inhibition at 10 µM (NCI-H522, Non-small cell lung cancer NCI-H522, 10 μM): 7.32% | inhibition at 10 µM (NCI/ADR-RES, Ovarian cancer NCI/ADR-RES, 10 μM): < 5% | inhibition at 10 µM (OVCAR-3, Ovarian cancer OVCAR-3, 10 μM): < 5% | inhibition at 10 µM (OVCAR-4, Ovarian cancer OVCAR-4, 10 μM): < 5% | inhibition at 10 µM (OVCAR-5, Ovarian cancer OVCAR-5, 10 μM): < 5% | inhibition at 10 µM (OVCAR-8, Ovarian cancer OVCAR-8, 10 μM): < 5% | inhibition at 10 µM (Prostate cancer PC-3, 10 μM): 13.3% | inhibition at 10 µM (RPMI-8226, Leukemia RPMI-8226, 10 μM): 9.34% | inhibition at 10 µM (RXF 393, Renal cancer RXF 393, 10 μM): < 5% | inhibition at 10 µM (SF-268, CNS Cancer SF-268, 10 μM): < 5% | inhibition at 10 µM (SF-295, CNS Cancer SF-295, 10 μM): 6.55% | inhibition at 10 µM (SF-539, CNS Cancer SF-539, 10 μM): 7.46% | inhibition at 10 µM (SK-MEL-2, Melanoma SK-MEL-2, 10 μM): < 5% | inhibition at 10 µM (SK-MEL-5, Melanoma SK-MEL-5, 10 μM): < 5% | inhibition at 10 µM (SK-MEL-28, Melanoma SK-MEL-28, 10 μM): < 5% | inhibition at 10 µM (SK-OV-3, Ovarian cancer SK-OV-3, 10 μM): < 5% | inhibition at 10 µM (SN12C, Renal cancer SN12C, 10 μM): 6.46% | inhibition at 10 µM (SNB-19, CNS Cancer SNB-19, 10 μM): 5.52% | inhibition at 10 µM (SNB-75, CNS Cancer SNB-75, 10 μM): 15.6% | inhibition at 10 µM (SW-620, Colon cancer SW-620, 10 μM): < 5% | inhibition at 10 µM (T47D, Breast cancer T-47D, 10 μM): 12.2% | inhibition at 10 µM (TK-10, Renal cancer TK-10, 10 μM): < 5% | inhibition at 10 µM (U-251, CNS Cancer U251, 10 μM): < 5% | inhibition at 10 µM (UACC-62, Melanoma UACC-62, 10 μM): < 5% | inhibition at 10 µM (UACC-257, Melanoma UACC-257, 10 μM): < 5% | inhibition at 10 µM (UO-31, Renal cancer UO-31, 10 μM): 37.4%
